Measured values as given in patent US4798823A, “New cyclosporin analogs with modified "C-9 amino acids"” (Merck & Co., Inc., priority 1987, dated 1989).

Target: cyclophilin (Bos taurus, UniProt P62935)
Test: Cyclophilin binding assay
Conditions: relative to cyclosporin A (CsA); average of multiple assays
Description: ^a This assay is described in detail by R. Handschumacher et. al.,

Chain of cyclophilin (P62935 whole entry): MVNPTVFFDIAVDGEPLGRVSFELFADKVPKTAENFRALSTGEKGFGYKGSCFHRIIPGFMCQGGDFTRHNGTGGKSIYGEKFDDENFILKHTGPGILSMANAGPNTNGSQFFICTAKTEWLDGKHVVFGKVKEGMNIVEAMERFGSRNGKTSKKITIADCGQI

With “cyclo[[](((2S,3R,[4R]4S)-N,4-dimethyl-4-(methylthiomethyl)-threonyl)-L-2-aminobutyrylsarcosyl-N-methyl-L-leucyl-L-valyl-N-methyl-L-leucyl-L-alanyl-D- alanyl-N-methyl-L-leucyl-N-methyl-L-leucyl-N-methyl-L-valyl-[]]) [(a)]” as the substance, how does the “CYCLOPHILIN BINDING (% OF CsA Activity)” value read?
The value was 179 % OF CsA Activity.
